# Source: ChEMBL document CHEMBL1157002, “SAR of a series of inhaled A(2A) agonists and comparison of inhaled pharmacokinetics in a preclinical model with clinical pharmacokinetic data” (Bioorg Med Chem Lett, 2009)
# pIC50: −log10 of the molar value. The source made the active and inactive calls. The rule behind the calls is not given here.
# Assays:
# [1] = tested on: Rattus norvegicus; experiment: Unbound clearance in rat at 1 mg/kg, iv; type: ADME, organism-based; parameters: dose 1 mg/kg, route intravenous; details: in vivo
# [2] = molecular target: Adenosine receptor A2a (Homo sapiens, UniProt P29274)
# Chain of Adenosine receptor A2a (P29274 whole entry): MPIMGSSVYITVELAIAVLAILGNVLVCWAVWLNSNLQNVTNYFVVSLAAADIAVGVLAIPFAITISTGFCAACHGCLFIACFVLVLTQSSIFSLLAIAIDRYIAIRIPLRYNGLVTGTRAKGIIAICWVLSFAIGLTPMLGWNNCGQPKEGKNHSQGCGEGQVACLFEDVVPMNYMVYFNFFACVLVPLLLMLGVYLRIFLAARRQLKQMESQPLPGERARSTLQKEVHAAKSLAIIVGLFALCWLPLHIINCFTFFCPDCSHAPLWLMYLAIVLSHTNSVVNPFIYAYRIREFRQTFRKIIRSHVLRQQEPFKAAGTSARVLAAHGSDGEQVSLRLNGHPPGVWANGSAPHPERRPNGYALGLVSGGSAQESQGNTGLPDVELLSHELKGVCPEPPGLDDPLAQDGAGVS
# Description: Agonist activity at adenosine A2A receptor in fMLP-stimulated human neutrophils assessed as inhibition of superoxide production by colorimetric analysis
# [3] = Lipophilicity, log D at pH 7.4; type: physicochemical; details: buffer
# [4] = Intrinsic clearance in human liver microsomes; type: ADME, Microsome
# [5] = tested on: Rattus norvegicus; experiment: Dose normalized fCmax in rat (dose normalized to 1 mg/kg); type: ADME, organism-based; parameters: dose 1 mg/kg; details: in vivo
# [6] = tested on: Homo sapiens; experiment: Toxicity in human assessed as increase of sitting blood pressure at 200 to 1600 ug administered by aerosol device; type: organism-based; details: in vivo, inhaled_or_intranasal
# [7] = tested on: Homo sapiens; experiment: Dose normalized fCmax in human at 100 ug administered by aerosol device measured up to 4 hrs (dose normalized to 1 mg/kg); type: ADME, organism-based; parameters: dose 1 mg/kg; details: in vivo
# [8] = tested on: Homo sapiens; experiment: Dose normalized fCmax in human at 400 ug administered by aerosol device measured up to 4 hrs (dose normalized to 1 mg/kg); type: ADME, organism-based; parameters: dose 1 mg/kg; details: in vivo
# [9] = organism: Cavia porcellus; experiment: Inhibition of capsaicin-induced bronchoconstriction in guinea pig at 10 ug up to 8 hrs; type: functional, organism-based
# [10] = tested on: Homo sapiens; experiment: Dose normalized fCmax in human at 1600 ug administered by aerosol device measured up to 4 hrs (dose normalized to 1 mg/kg); type: ADME, organism-based; parameters: dose 1 mg/kg; details: in vivo
# [11] = tested on: Homo sapiens; experiment: Dose normalized fCmax in human at 800 ug administered by aerosol device measured up to 4 hrs (dose normalized to 1 mg/kg); type: ADME, organism-based; parameters: dose 1 mg/kg; details: in vivo
# [12] = Half life in human at 100 to 1600 ug administered by aerosol device; type: ADME, organism-based; details: in vivo, inhaled or intranasal
# [13] = tested on: Homo sapiens; experiment: Dose normalized fCmax in human at 200 ug administered by aerosol device measured up to 4 hrs (dose normalized to 1 mg/kg); type: ADME, organism-based; parameters: dose 1 mg/kg; details: in vivo
# [14] = tested on: Cavia porcellus; experiment: Toxicity in it dosed guinea pig assessed as decrease of diastolic blood pressure; type: organism-based, Artery; details: in vivo, inhaled_or_intranasal
# [15] = tested on: Cavia porcellus; experiment: Inhibition of capsaicin-induced bronchoconstriction in it dosed guinea pig up to 5 hrs; type: functional, organism-based
smiles,measurement,setting,value
CCNC(=O)[C@H]1O[C@@H](n2cnc3c(NCC(c4ccccc4)c4ccccc4)nc(C(=O)NCCNC(=O)NCCN(C(C)C)C(C)C)nc32)[C@H](O)[C@@H]1O,CL free,[1],45 L/h/kg
same,pIC50,[2],8.30
same,logD,[3],0.9
same,microsomal CLint,[4],81 µL/min/mg
same,Cmax_unbound,[5],12.3 nM
CCNC(=O)[C@H]1O[C@@H](n2cnc3c(NCC(c4ccccc4)c4ccccc4)nc(C(=O)NCCNC(=O)NCCc4ccccc4)nc32)[C@H](O)[C@@H]1O,pIC50,[2],8.00
CCNC(=O)[C@H]1O[C@@H](n2cnc3c(NCC(c4ccccc4)c4ccccc4)nc(C(=O)NCCNC(=O)NC4CCN(c5ccccn5)CC4)nc32)[C@H](O)[C@@H]1O [UK432097],CL free,[1],330 L/h/kg
same,Activity,[6],Toxic
same,Cmax_unbound,[7],0.45 nM
same,Cmax_unbound,[8],0.19 nM
same,Activity,[9],Active
same,Cmax_unbound,[10],0.12 nM
same,Cmax_unbound,[11],0.19 nM
same,microsomal CLint,[4],> 255 µL/min/mg
same,Cmax_unbound,[5],0.2 nM
same,half-life,[12],3 h
same,Cmax_unbound,[13],0.3 nM
CCNC(=O)[C@H]1O[C@@H](n2cnc3c(NCC(c4ccccc4)c4ccccc4)nc(CNC(=O)NCCN(C(C)C)C4CCCC4)nc32)[C@H](O)[C@@H]1O,CL free,[1],210 L/h/kg
same,logD,[3],2
same,Cmax_unbound,[5],1.8 nM
O=C(NCCNC(=O)c1nc(NCC(c2ccccc2)c2ccccc2)c2ncn([C@@H]3O[C@H](CO)[C@@H](O)[C@H]3O)c2n1)NCCN1CCCCC1,pIC50,[2],7.35
CCNC(=O)[C@H]1O[C@@H](n2cnc3c(NCC(c4ccccc4)c4ccccc4)nc(C(=O)NCCNC(=O)NCc4ccc(CN(CC)CC)cc4)nc32)[C@H](O)[C@@H]1O,pIC50,[2],8.30
CCNC(=O)[C@H]1O[C@@H](n2cnc3c(NCC(c4ccccc4)c4ccccc4)nc(C(=O)NCCNC(=O)NCCN4CCCCC4)nc32)[C@H](O)[C@@H]1O,pIC50,[2],8.30
CCNC(=O)[C@H]1O[C@@H](n2cnc3c(NCC(c4ccccc4)c4ccccc4)nc(C(=O)NCCNC(=O)NCCN(C(C)C)C4CCCC4)nc32)[C@H](O)[C@@H]1O,pIC50,[2],8.15
CCNC(=O)[C@H]1O[C@@H](n2cnc3c(NCC(c4ccccc4)c4ccccc4)nc(C(=O)NCCNC(=O)NCc4ccccc4)nc32)[C@H](O)[C@@H]1O,pIC50,[2],8.22
CCNC(=O)[C@H]1O[C@@H](n2cnc3c(NCC(c4ccccc4)c4ccccc4)nc(C(=O)NCCN(C)C(=O)NCCN4CCCCC4)nc32)[C@H](O)[C@@H]1O,pIC50,[2],6.52
CCNC(=O)[C@H]1O[C@@H](n2cnc3c(NCC(c4ccccc4)c4ccccc4)nc(C(=O)NCCNC(=O)NCc4ccccn4)nc32)[C@H](O)[C@@H]1O,pIC50,[2],8.40
CCNC(=O)[C@H]1O[C@@H](n2cnc3c(NCC(c4ccccc4)c4ccccc4)nc(C(=O)NCCNC(=O)NCCN4CCc5ccccc5C4)nc32)[C@H](O)[C@@H]1O,pIC50,[2],8.00
CCNC(=O)[C@H]1O[C@@H](n2cnc3c(NCC(c4ccccc4)c4ccccc4)nc(C(=O)NCCNC(=O)NCc4ccc(C(=O)O)cc4)nc32)[C@H](O)[C@@H]1O,pIC50,[2],9.40
CCNC(=O)[C@H]1O[C@@H](n2cnc3c(NCC(c4ccccc4)c4ccccc4)nc(CNC(=O)NCCN4CCCCC4)nc32)[C@H](O)[C@@H]1O,Activity,[14],Non-toxic
same,Activity,[15],Active
